Data on 43 molecules can be found in ChEMBL document CHEMBL4495564, “Identification of inhibitors of SARS-Cov2 M-Pro enzymatic activity using a small molecule repurposing screen” (2020).

The target in assay [1] is Replicase polyprotein 1ab (Middle East respiratory syndrome-related coronavirus (isolate UnitedKingdom/H123990006/2012) (Betacoronavirus England 1) (Humancoronavirus EMC), UniProt K9N7C7). Put plainly: biochemical. The format is functional.
Assay [2] addresses Replicase polyprotein 1ab (Middle East respiratory syndrome-related coronavirus (isolate UnitedKingdom/H123990006/2012) (Betacoronavirus England 1) (Humancoronavirus EMC)) (UniProt K9N7C7). The settings on record: at 10 µM.
Assay [3] concerns the target Replicase polyprotein 1ab (Severe acute respiratory syndrome coronavirus 2, UniProt P0DTD1). Put plainly: biochemical. The format is functional.
Assay [4] deals with Chymotrypsin (Homo sapiens) (UniProt Q99895+P17538+P40313+Q6GPI1). Put plainly: Chymotrypsin inhibition percentage at 10 µM by FRET kind of response from peptide substrate. The format is functional.

“And” between values parts separate entries of the source, which are not always exact repeats. Equal values may be shown once. Where a name gives a salt, the structure may show the parent alone. Some results are limits rather than exact numbers.

Replicase polyprotein 1ab (Middle East respiratory syndrome-related coronavirus (isolate UnitedKingdom/H123990006/2012) (Betacoronavirus England 1) (Humancoronavirus EMC), UniProt K9N7C7), sequence (K9N7C7 3248-3553 limits assumed): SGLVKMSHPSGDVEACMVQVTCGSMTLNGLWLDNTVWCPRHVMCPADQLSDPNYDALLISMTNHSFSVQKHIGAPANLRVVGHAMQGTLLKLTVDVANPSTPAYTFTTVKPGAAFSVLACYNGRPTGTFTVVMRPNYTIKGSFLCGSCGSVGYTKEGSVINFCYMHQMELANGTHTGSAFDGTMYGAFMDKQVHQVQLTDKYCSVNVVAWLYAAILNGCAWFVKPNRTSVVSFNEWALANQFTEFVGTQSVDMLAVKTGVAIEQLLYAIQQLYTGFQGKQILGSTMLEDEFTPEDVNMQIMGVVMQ

On to `C/N=c1/nc(-c2ccccc2)n(-c2ccccc2)s1`, for which the IC50 in assay [1] is greater than 10 µM; in assay [3], 0.98 µM. The inhibition in assay [2] is 44%.

`Nc1nc(S)c2ncn(C3OC(CO)C(O)C3O)c2n1` (stereo unspecified): in assay [4], the inhibition came to 7.56%. In assay [3], this molecule came in with an IC50 of 1.08 µM.

`O=C(O)[C@@H](S)[C@@H](S)C(=O)O`: the IC50 is greater than 10 µM in assay [1] and 1.72 µM in assay [3]. Further, in assay [2], the inhibition came out at 0%.

Regarding `CN1CCN(C2=C(Cl)C(=O)N(c3ccc(Cl)c(Cl)c3)C2=O)CC1`, the inhibition in assay [4] was found to be 9.67%. The molecule further displayed an IC50 in assay [3] of less than 1.23 µM.

As for `CCOc1cc(C(Nc2cc(C)ccn2)c2ccc3cccnc3c2O)ccc1OC` (stereo unspecified), the inhibition in assay [4] was found to be 13.3%. This molecule had an IC50 in assay [3] of less than 0.27 µM.

As to `Cc1ccc(-n2sc(=O)n(Cc3ccc(F)cc3)c2=O)cc1`, the IC50 was greater than 10 µM in assay [1] and 0.23 µM in assay [3]. Moreover, the inhibition in assay [2] turned out to be 35%; in assay [4] it was 24.5%.

For `Sc1nnnn1-c1ccccc1`, the inhibition in assay [4] came to 4.48%. The molecule also gave an IC50 in assay [3] of 2.36 µM.

Turning to `CC(C)(C)OC(=O)NCCc1nnc(S(=O)(=O)Cc2ccc(Cl)cc2Cl)o1`, the inhibition in assay [4] was determined as 103%. In addition, it took 4.22 µM to reach half-maximal inhibition in assay [3] (IC50).

Consider `Sc1nnc(Nc2ccccc2)s1`, for which the inhibition in assay [4] worked out at 4.67%. This molecule came in with an IC50 in assay [3] of 0.39 µM.

For the molecule `CN1CCN(C(=O)c2ccc(-c3ccc4c(C=O)c(O)ccc4c3)s2)CC1`, the inhibition in assay [4] is 9.67%. This molecule also showed an IC50 in assay [3] of 1.33 µM.

`O=C(/C=C/c1ccc(O)c2c1[C@@H](C(=O)O[C@H](Cc1ccc(O)c(O)c1)C(=O)O)[C@H](c1ccc(O)c(O)c1)O2)O[C@H](Cc1ccc(O)c(O)c1)C(=O)O` displayed a half-maximal inhibitory concentration (IC50) in assay [3] of 3.42 µM.

Consider `Cc1ccc(S(=O)(=O)/C=C/C#N)cc1`, for which the figures for the IC50 in assay [1] and in assay [3] were greater than 10 µM and 0.82 µM, respectively. The inhibition in assay [2] was determined as 17%.

For `C/C=C1\C(OC2OC(CO)C(O)C(O)C2O)OC=C(C(=O)OC)C1CC(=O)OCCc1ccc(O)c(O)c1` (stereo unspecified), the figures for the IC50 in assay [1] and in assay [3] were greater than 10 µM and 3.38 µM, respectively. The inhibition in assay [2] came out at 0%.

For `C[C@@H]1O[C@@H](Oc2c(-c3cc(O)c(O)c(O)c3)oc3cc(O)cc(O)c3c2=O)[C@@H](O)[C@H](O)[C@H]1O`, in assay [3], the IC50 came out at 3.66 µM.

For the molecule `Oc1cc(CNC(=S)/C=C/c2cc(O)c(O)c(Br)c2)cc(O)c1O`, the results for the IC50 in assay [1] and in assay [3] were greater than 10 µM and 0.48 µM, respectively. For the same molecule, the inhibition in assay [2] turned out to be 20%.

In assay [3], `C=C1C(=O)[C@]23[C@H](O)[C@H]1CC[C@@H]2[C@@]12CO[C@]3(O)C[C@@H]1C(C)(C)CC[C@@H]2O` displayed an IC50 of 2.57 µM.

In the case of `O=C1C=Cc2cc(Br)ccc2C1=O`, the IC50 was greater than 10 µM in assay [1] and 0.16 µM in assay [3]. Also, the inhibition in assay [2] is 9% and 0%; in assay [4], 8.47%.

For the molecule `CCc1ccc(/C=C/C(=O)Nc2ccc(C(C)=O)cc2)o1`, in assay [3], 4.95 µM corresponded to half-maximal inhibition (IC50).

For `CCOC(=O)c1c(N)sc(-c2ccccc2)c1C`, the inhibition in assay [4] came to 5.82%. For the same molecule, in assay [3], the IC50 came to 3.19 µM.

`C[C@@H]1O[C@@H](O[C@@H]2[C@@H](O)[C@H](OCCc3ccc(O)c(O)c3)O[C@H](CO)[C@H]2OC(=O)/C=C/c2ccc(O)c(O)c2)[C@H](O)[C@H](O)[C@H]1O` [ACETOSIDE]: the IC50 in assay [3] is 4.54 µM.

For the molecule `COc1cccc2c1C(=O)c1c(O)c3c(c(O)c1C2=O)C[C@@](O)(/C(CO)=N/NC(=O)CCCCCN1C(=O)C=CC1=O)C[C@@H]3O[C@H]1C[C@H](N)[C@H](O)[C@H](C)O1` [ALDOXORUBICIN], the 50% inhibitory concentration (IC50) in assay [1] is greater than 10 µM; in assay [3], 0.58 µM. Moreover, in assay [2], the inhibition stood at 1%.

Regarding `COc1nc2ccc(Br)cc2cc1[C@@H](c1ccccc1)[C@@](O)(CCN(C)C)c1cccc2ccccc12` [BEDAQUILINE], in assay [3], the IC50 turned out to be 4.36 µM.

On to `C[C@@](Cc1ccc(O)c(O)c1)(NN)C(=O)O` [CARBIDOPA ANHYDROUS], for which the IC50 is greater than 10 µM in assay [1] and 3.55 µM in assay [3]. Also, the inhibition in assay [2] was found to be 0%.

Turning to `O=C1C(Cl)=C(Cl)C(=O)C(Cl)=C1Cl` [CHLORANIL], the inhibition in assay [4] was 10.1%. Moreover, in assay [3], the IC50 is less than 0.02 µM.

As for `CC(C)Nc1cccnc1N1CCN(C(=O)c2cc3cc(NS(C)(=O)=O)ccc3[nH]2)CC1` [DELAVIRDINE MESYLATE], the IC50 was greater than 10 µM in assay [1] and 3.99 µM in assay [3]. For the same molecule, the figures for the inhibition in assay [2] and in assay [4] were 34% and 9.13%, respectively.

The molecule `C[n+]1c2cc(N)ccc2cc2ccc(N)cc21` [EUFLAVINE] showed a concentration for half-maximal inhibition (IC50) in assay [3] of 4.98 µM.

`Cc1c(OCC(F)(F)F)ccnc1C[S+]([O-])c1nc2ccccc2[nH]1` (stereo unspecified) [LANSOPRAZOLE]: the figures for the IC50 in assay [1] and in assay [3] were greater than 10 µM and 0.39 µM, respectively. The inhibition is 47% in assay [2]; 6.43% and 5.66% in assay [4].

Regarding `Cc1c(-c2cnccn2)ssc1=S` [OLTIPRAZ], the IC50 in assay [1] was greater than 10 µM; in assay [3] it was 0.62 µM. Moreover, the inhibition in assay [2] was 10% and 0%; in assay [4], 9.89%.

With `Nc1ccc2cc3ccc(N)cc3nc2c1` [PROFLAVINE], the values for the IC50 in assay [1] and in assay [3] were greater than 10 µM and 0.36 µM, respectively. Further, in assay [4], the inhibition amounted to 16.3%.

On to `O=c1c(O)cccc2cc(O)c(O)c(O)c12` [PURPUROGALLIN], for which the inhibition in assay [4] was found to be 9.33%. In assay [3], this molecule came in with an IC50 of 4.58 µM.

For `[O-][n+]1ccccc1S` [PYRITHIONE ZINC], the IC50 was greater than 10 µM in assay [1] (tested as the Zn salt or complex) and 2.46 µM in assay [3].

In the case of `[O-][n+]1ccccc1S` [PYRITHIONE], 0.05 µM corresponded to half-maximal inhibition in assay [3] (IC50).

Take `S=C(S)N1CCCC1` [PYRROLIDINE DITHIOCARBAMIC ACID, AMMONIUM SALT]: the figures for the half-inhibitory concentration (IC50) in assay [1] and in assay [3] were greater than 10 µM and 0.21 µM, respectively. Further, the inhibition in assay [2] stood at 42%.

`CC(CN1CC(=O)NC(=O)C1)N1CC(=O)NC(=O)C1` (stereo unspecified) [RAZOXANE]: the concentration for half-maximal inhibition (IC50) in assay [1] was greater than 10 µM; in assay [3], 3.19 µM. Besides, the results for the inhibition in assay [2] and in assay [4] were 7% and -0.92%, respectively.

`O=C(O)c1cc(O)c2c(c1)[C@H]([C@H]1c3cc(C(=O)O)cc(O)c3C(=O)c3c(O[C@@H]4O[C@H](CO)[C@@H](O)[C@H](O)[C@H]4O)cccc31)c1cccc(O[C@@H]3O[C@H](CO)[C@@H](O)[C@H](O)[C@H]3O)c1C2=O` [Sennoside A] registered an IC50 in assay [1] greater than 10 µM. For the same molecule, the inhibition in assay [2] came to 42%; in assay [4] it was 2.66%.

In the case of `O=c1sn(-c2cccc3ccccc23)c(=O)n1Cc1ccccc1` [TIDEGLUSIB], the IC50 in assay [1] is greater than 10 µM. The inhibition in assay [2] is 22% and 0%; in assay [4], 30.7%.

As for `Cc1ccc(S(=O)(=O)N[C@@H](Cc2ccccc2)C(=O)CCl)cc1` [TPCK], the inhibition in assay [4] was 39.6%. For the same molecule, inhibition in assay [3] was half-maximal at 1.37 µM (IC50).

With `CC(C)c1cc(CNc2nc(Nc3cc(C4CC4)[nH]n3)cc(N3CCN(C)CC3)n2)on1` [XL-228], the values for the IC50 in assay [1] and in assay [3] were greater than 10 µM and 1.49 µM, respectively. The inhibition in assay [2] was 9%.

For ACRIFLAVINE HYDROCHLORIDE, the IC50 in assay [1] is 10 µM; in assay [3], 1.93 µM.

Take AUROTHIOGLUCOSE: the results for the IC50 in assay [1] and in assay [3] were 10 µM and 1.74 µM, respectively.

CISPLATIN: in assay [3], the IC50 was 3.82 µM.

As to MERBROMIN, the IC50 in assay [1] is greater than 10 µM; in assay [3], 0.24 µM.

As for PHENYLMERCURIC ACETATE, the IC50 was greater than 10 µM in assay [1] and 0.01 µM in assay [3].

What is called IC50 is the point on the concentration scale where inhibition reaches its midpoint. By inhibition is commonly meant the relative decrease from the control value, in per cent.
